Source: ChEMBL document CHEMBL1201862, “PubChem BioAssay data set” (2004)
The source made the active and inactive calls. For most assays here, no stated cut-off is given here; in the data, actives have a measured EC50 and inactives only a lower limit. Peptide text beside a SMILES is read from it. * marks the point of attachment. Cbz = O=C(OCc1ccccc1)*

Legend:
[1] = test system: Streptococcus sp. 'group A'; test: Streptococcus pyogenes SK(-)GAS viability under kanamycin – luminescence, BacTiterGlo, confirmation, counter-screen for streptokinase expression inhibitor project, dose response (AID 1900); type: functional, organism-based
[2] = test system: Streptococcus; test: GAS UMAA2166 growth inhibition – luminescence, BacTiterGlo, counter-screen for streptokinase expression inhibitor project, dose response (AID 1915); type: functional, organism-based;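 further: potency for reduction of bacterial viability or growth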
[3] = Trypanosoma cruzi growth suppression in host cells – NIH3T3 host cells, beta-gal luminescence, confirmation (AID 2044); type: functional, cell-based;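 further: intracellular parasites grown in NIH/3T3 mouse fibroblasts as host cells; luminescent beta-galactosidase reporter signal from transgenic T. cruzi replicating inside host cells; inhibitors lower the luminescence signal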
[4] = NIH3T3 cell viability loss – ATP luminescence, mouse fibroblasts, counter-screen, dose response (AID 2010); type: functional, cell-based;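 further: cells exposed to compound for about 90 hours before reading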
[5] = biological target: T1, Streptokinase A (Streptococcus pyogenes serotype M1, UniProt P10520); test: viability-normalized secreted streptokinase activity reduction – plasminogen activation absorbance, OD405, dose response (AID 1914); type: functional, Streptococcus pyogenes M1 GAS;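 further: secreted streptokinase activity via plasminogen activation per viability signal from cell pellet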
T1 sequence (P10520 whole entry): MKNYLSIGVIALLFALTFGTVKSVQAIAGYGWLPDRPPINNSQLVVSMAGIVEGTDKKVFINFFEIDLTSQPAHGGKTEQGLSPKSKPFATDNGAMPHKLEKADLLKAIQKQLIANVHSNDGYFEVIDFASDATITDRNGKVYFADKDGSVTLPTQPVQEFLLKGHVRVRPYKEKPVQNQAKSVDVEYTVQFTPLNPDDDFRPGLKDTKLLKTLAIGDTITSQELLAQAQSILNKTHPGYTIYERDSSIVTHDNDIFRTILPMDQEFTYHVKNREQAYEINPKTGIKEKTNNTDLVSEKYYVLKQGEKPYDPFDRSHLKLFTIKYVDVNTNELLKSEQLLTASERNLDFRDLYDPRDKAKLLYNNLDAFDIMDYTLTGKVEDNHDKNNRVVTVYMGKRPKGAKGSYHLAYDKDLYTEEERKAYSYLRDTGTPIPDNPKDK

[6] = biological target: Cytochrome P450 3A4 (Homo sapiens, UniProt P08684);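 further: CYP3A4 tested as one member of a cytochrome P450 panel screen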
Sequence of Cytochrome P450 3A4 (P08684 whole entry): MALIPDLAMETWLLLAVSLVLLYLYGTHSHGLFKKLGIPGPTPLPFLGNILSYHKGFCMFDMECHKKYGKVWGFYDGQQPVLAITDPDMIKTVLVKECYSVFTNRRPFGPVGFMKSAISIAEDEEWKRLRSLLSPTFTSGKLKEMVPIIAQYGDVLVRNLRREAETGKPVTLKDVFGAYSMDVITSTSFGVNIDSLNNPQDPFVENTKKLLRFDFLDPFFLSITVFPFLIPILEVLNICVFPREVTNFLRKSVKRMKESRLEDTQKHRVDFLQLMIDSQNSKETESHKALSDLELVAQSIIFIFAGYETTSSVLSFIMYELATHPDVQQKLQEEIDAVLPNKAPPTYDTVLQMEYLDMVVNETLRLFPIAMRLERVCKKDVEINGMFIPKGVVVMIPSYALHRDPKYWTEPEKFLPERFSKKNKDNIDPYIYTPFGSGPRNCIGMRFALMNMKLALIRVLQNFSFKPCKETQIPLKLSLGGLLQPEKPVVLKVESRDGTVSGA

[7] = biological target: Paired box protein Pax-8 (Homo sapiens, UniProt Q06710); test: PAX8 transcriptional activity inhibition in RMG-I – RMG-I cells, luciferase, cherry-pick, dose response (AID 687027); type: functional, cell-based;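 further: luciferase reporter driven by Pax8 target thyroperoxidase promoter measured by SteadyGlo luminescence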
Sequence of Paired box protein Pax-8 (Q06710 whole entry): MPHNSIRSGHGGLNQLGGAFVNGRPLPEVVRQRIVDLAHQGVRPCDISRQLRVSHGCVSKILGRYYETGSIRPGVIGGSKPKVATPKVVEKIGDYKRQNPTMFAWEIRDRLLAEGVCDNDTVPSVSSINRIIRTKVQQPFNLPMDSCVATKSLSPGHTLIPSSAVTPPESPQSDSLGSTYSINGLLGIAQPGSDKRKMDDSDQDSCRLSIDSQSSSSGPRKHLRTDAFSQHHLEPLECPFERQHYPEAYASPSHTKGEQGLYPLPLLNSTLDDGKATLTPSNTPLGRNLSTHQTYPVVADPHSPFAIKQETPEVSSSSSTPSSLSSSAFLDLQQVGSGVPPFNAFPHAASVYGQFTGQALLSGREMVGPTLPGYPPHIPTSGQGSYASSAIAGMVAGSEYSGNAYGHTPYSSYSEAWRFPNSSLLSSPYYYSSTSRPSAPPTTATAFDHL

[8] = biological target: Cytochrome P450 2C9 (Homo sapiens, UniProt P11712)
Sequence of Cytochrome P450 2C9 (P11712 whole entry): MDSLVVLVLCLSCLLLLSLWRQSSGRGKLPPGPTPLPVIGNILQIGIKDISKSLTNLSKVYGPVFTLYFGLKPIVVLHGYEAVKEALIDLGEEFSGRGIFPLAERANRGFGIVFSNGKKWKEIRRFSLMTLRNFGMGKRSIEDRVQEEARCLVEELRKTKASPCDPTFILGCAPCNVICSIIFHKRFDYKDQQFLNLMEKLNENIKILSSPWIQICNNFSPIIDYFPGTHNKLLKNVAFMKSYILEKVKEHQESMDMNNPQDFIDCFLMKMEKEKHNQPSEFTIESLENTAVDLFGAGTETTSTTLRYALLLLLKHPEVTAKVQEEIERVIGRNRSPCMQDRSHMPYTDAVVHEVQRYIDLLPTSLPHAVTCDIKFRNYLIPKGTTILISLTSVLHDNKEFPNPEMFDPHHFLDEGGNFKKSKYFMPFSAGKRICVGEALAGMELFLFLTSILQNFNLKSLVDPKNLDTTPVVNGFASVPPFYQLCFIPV

[9] = biological target: T2, Corticotropin-releasing factor receptor 2/Corticotropin-releasing factor-binding protein (Homo sapiens, UniProt P24387+Q13324); test: activators of CRF receptor 2 with binding protein – uHTS hits, confirmation (AID 602473); type: functional; settings: read-out: EC50_Mean
T2 sequence (Q13324 whole entry): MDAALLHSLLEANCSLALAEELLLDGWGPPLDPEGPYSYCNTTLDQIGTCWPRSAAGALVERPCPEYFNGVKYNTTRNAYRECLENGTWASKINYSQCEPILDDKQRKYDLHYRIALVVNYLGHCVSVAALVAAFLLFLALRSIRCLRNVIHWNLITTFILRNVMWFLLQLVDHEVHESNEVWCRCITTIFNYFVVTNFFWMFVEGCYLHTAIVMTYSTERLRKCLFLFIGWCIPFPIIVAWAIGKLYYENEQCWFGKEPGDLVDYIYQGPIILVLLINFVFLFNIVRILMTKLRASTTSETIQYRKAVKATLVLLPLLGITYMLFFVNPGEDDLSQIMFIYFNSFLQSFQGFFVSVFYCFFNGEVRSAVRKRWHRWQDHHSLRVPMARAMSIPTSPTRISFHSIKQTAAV
T2 sequence (P24387 whole entry): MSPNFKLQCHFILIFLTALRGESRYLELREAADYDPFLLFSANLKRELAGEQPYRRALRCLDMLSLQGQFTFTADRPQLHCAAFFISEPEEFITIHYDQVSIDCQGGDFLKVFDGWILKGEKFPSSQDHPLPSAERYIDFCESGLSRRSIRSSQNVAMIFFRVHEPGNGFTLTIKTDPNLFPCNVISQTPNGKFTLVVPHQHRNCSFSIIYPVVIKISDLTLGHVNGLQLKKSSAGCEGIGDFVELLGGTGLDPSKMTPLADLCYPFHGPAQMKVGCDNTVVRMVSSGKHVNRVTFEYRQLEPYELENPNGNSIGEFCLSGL

[10] = biological target: T2, Corticotropin-releasing factor receptor 2/Corticotropin-releasing factor-binding protein; test: Dose Response confirmation of uHTS hits for small molecule antagonists of the CRF-binding protein and CRF-R2 receptor complex.; type: functional; settings: read-out: IC50_Mean

COc1c(CC=C(C)C)cc(C2CC(=O)c3c(O)cc(O)cc3O2)c(CC=C(C)C)c1O (centres undefined)
EC50 [1]: 3.02 µM (active) | EC50 [2]: 2.9 µM (active)

CCn1/c(=N\C(=O)CS(=O)(=O)c2ccc(C)cc2)sc2cccc(OC)c21
EC50 [3]: 1.2 µM (active) | EC50 [4]: 8.46 µM (active)

O=C(N/N=C/c1ccc(-c2cccc(C(F)(F)F)c2)o1)c1cccc(F)c1
EC50 [3]: 1.15 µM (active) | EC50 [4]: > 60 µM (not active)

Clc1ccc2c(N/N=C/c3cccnc3)ccnc2c1
EC50 [3]: 0.931 µM (active) | EC50 [4]: > 60 µM (not active)

O=C(Nc1cccc(C(F)(F)F)c1)c1cc2c(=O)c3ccccc3oc2nc1C(F)(F)F
EC50 [1]: 18.7 µM (active) | EC50 [5]: 43.3 µM (inconclusive) | EC50 [2]: 65.1 µM (active)

O=C1CC(NS(=O)(=O)c2ccc([N+](=O)[O-])cc2)CN1c1ccc(Cl)cc1 (centres undefined)
EC50 [3]: 0.477 µM (active) | EC50 [4]: > 60 µM (not active)

CO[C@H]1C[C@@H](O[C@@H]2[C@H](C)[C@H](O[C@@H]3O[C@@H](C)C[C@@H](N(C)C)[C@@H]3O)[C@H](C)C[C@]3(CO3)C(=O)[C@H](C)[C@H](O)[C@H](C)[C@H](C)OC(=O)[C@@H]2C)O[C@@H](C)[C@H]1O
AC50 [6]: 12.6 µM (inconclusive)

C[C@@H]1CN([C@@H](C)CO)C(=O)c2cc(NC(=O)Nc3ccc(C(F)(F)F)cc3)ccc2O[C@@H](C)CCCCO[C@@H]1CN(C)Cc1ccncc1
AC50 [7]: 9.03 µM (active)

O=c1[nH]c2ccc(Cl)cc2c(-c2ccccc2)c1N1CCN(c2ccccn2)CC1
EC50 [5]: 3.83 µM (active)

CC(C)CCN=C(S)NC1CCCC1
AC50 [6]: 22.4 µM (inconclusive) | AC50 [8]: 39.8 µM (inconclusive)

COc1cc(CNCc2ccncc2)cc(Br)c1OCc1ccccc1F
EC50 [3]: 2.83 µM (active) | EC50 [4]: > 30 µM (not active)

C[C@@H](C(=O)O)c1ccc(C(=O)c2cccs2)cc1 [(R)-SUPROFEN]
AC50 [8]: 12.6 µM (inconclusive)

Cc1[nH]cnc1C(=O)N/N=C/c1ccc([N+](=O)[O-])s1
EC50 [1]: 2.91 µM (active) | EC50 [3]: 0.449 µM (active) | EC50 [4]: > 60 µM (not active) | EC50 [2]: 5.18 µM (active)

CC(C)[C@H](NC(=O)OCc1ccccc1)C(=O)N[C@H](C=O)Cc1ccccc1 (Cbz-Val-Phe-aldehyde)
AC50 [8]: 39.8 µM (inconclusive)

Cc1ccc(NC(=O)CN(c2ccc(Cl)cc2)S(=O)(=O)c2cc([N+](=O)[O-])ccc2Cl)c(C)c1
EC50 [3]: 2.42 µM (active) | EC50 [4]: > 60 µM (inconclusive)

CCCC(=O)NC(=S)Nc1ccc(S(=O)(=O)Nc2ccc(OCC)cc2)cc1
EC50 [9]: > 53 µM (inactive)

Fc1ccc(Cn2nnnc2C(c2ccc(Cl)cc2)N2CC=C(c3ccc(F)cc3)CC2)cc1 (centres undefined)
EC50 [3]: 1.34 µM (active) | EC50 [4]: > 60 µM (not active)

CN1CCN(C(CNC(=O)C(=O)Nc2ccc3c(c2)OCCO3)c2ccc(F)cc2)CC1 (centres undefined)
EC50 [3]: 0.952 µM (active) | EC50 [4]: > 60 µM (not active)

Cc1ccc(CN2CCN(Cc3nc4c(s3)CCCC4)CC2CCO)cc1 (centres undefined)
EC50 [3]: 0.546 µM (active) | EC50 [4]: > 60 µM (not active)

Cc1nnc2n(Cc3ccccc3)c(=O)c3c4c(sc3n12)COC(C)(C)C4
IC50 [10]: > 47.1 µM (inactive) | EC50 [9]: > 53 µM (inactive)

COc1cc(CN2CCN(C(=O)CC(C)C)CC2)cc(OC)c1OC
AC50 [8]: 28.2 µM (inconclusive)

Cc1noc(C)c1CSc1nc2sc(C)c(C)c2c(=O)n1-c1ccccc1
EC50 [3]: 1.02 µM (active) | EC50 [4]: > 60 µM (not active)

Cc1[nH]c(C)c(S(=O)(=O)NCCc2ccccc2)c1C(=O)N1CCCCC1
IC50 [10]: > 47.1 µM (inactive) | EC50 [9]: > 53 µM (inactive)

Cc1cccc(CN2CCN(CC(=O)O)C2=O)c1
AC50 [6]: 15.8 µM (inconclusive)

CCOc1ccc(Nc2nc(N3CCCC3)nc(N3CCN(c4ccc(OC)cc4)CC3)n2)cc1
EC50 [3]: 2.73 µM (active) | EC50 [4]: > 60 µM (not active)

CCOC(=O)C1=C(CCc2ccccc2)NC(=O)NC1c1cccc([N+](=O)[O-])c1 (centres undefined)
IC50 [10]: > 47.1 µM (inactive) | EC50 [9]: > 53 µM (inactive)

COc1ccc(C(=O)OCC(=O)N(C)C2CCS(=O)(=O)C2)cc1S(=O)(=O)N(C)Cc1ccccc1 (centres undefined)
IC50 [10]: > 47.1 µM (inactive) | EC50 [9]: > 53 µM (inactive)

N=C(N)SCc1cccc(-c2nc3ccccc3c(=O)o2)c1
AC50 [8]: 5.01 µM (inconclusive)

Cc1ccc(OCC(=O)Nc2ccc(S(=O)(=O)Nc3onc(C)c3C)cc2)cc1
AC50 [6]: 35.5 µM (inconclusive)

COc1ccc(NS(=O)(=O)c2cc(-c3nnnn3C)ccc2OC)cc1
AC50 [8]: 25.1 µM (inconclusive)

Cc1c(C(=O)Nc2nc3ccccc3[nH]2)oc2ccc(Br)cc12
EC50 [3]: 1.63 µM (active) | EC50 [4]: > 60 µM (not active)

O=C(CCNS(=O)(=O)c1cccs1)N1CCc2ccccc2C1
AC50 [6]: 14.1 µM (inconclusive)

N#CCCn1c(=O)c(-c2ccccc2)nc2cnc(Oc3ccccc3)nc21
AC50 [8]: 15.8 µM (inconclusive)

COc1ccc(N2CCN(C3CCCCC3NS(=O)(=O)c3ccc(Cl)cc3)CC2)cc1 (centres undefined)
EC50 [9]: 4.33 µM (active)

O=C(CCC(=O)N1CCOc2ccc(Cl)cc21)NCc1ccccc1
EC50 [9]: > 53 µM (inactive)

O=S(=O)(NCc1ccccc1)c1ccccc1NCCc1ccccc1
IC50 [10]: > 47.1 µM (inactive) | EC50 [9]: > 53 µM (inactive)

Cc1ccc2nc(Cl)c(/C=C/C(=O)c3ccco3)cc2c1
IC50 [10]: > 47.1 µM (inactive) | EC50 [9]: > 53 µM (inactive)

CCCNCCC(c1ccco1)c1ccccc1OC (centres undefined)
IC50 [10]: > 47.1 µM (inactive) | EC50 [9]: > 53 µM (inactive)

CN1CCN(c2nc(N3CCN(c4ccccc4)CC3)ncc2F)CC1
EC50 [3]: 0.253 µM (active) | EC50 [4]: > 30 µM (not active)

O=C(c1cnn2c(C(F)(F)F)cc(-c3cccs3)nc12)N1CCN(Cc2ccccc2)CC1
EC50 [3]: 0.721 µM (active) | EC50 [4]: > 60 µM (not active)

CC(C)(CNC(=O)c1cc(Cl)c(O)c(Cl)c1)N1CCCCC1
IC50 [10]: > 47.1 µM (inactive) | EC50 [9]: > 53 µM (inactive)

O=C(OCCN1C(=O)c2ccccc2C1=O)c1cccc(OC(F)F)c1
IC50 [10]: > 47.1 µM (inactive) | EC50 [9]: > 53 µM (inactive)

O=C(CSc1nnc(CNc2ccc(F)cc2)o1)OC1CCCCC1
AC50 [8]: 17.8 µM (inconclusive)

COCCNC(=O)CN(CC1CCCO1)C(=O)CCC(=O)Nc1ccccn1 (centres undefined)
IC50 [10]: > 47.1 µM (inactive) | EC50 [9]: > 53 µM (inactive)

Cc1nnsc1C(=O)NC1CCCc2c1cnn2-c1ccc(C(C)(C)C)cc1 (centres undefined)
EC50 [3]: 1.98 µM (active) | EC50 [4]: > 60 µM (not active)

Cc1cc(O)ccc1N1C(=O)c2cccc3cc([N+](=O)[O-])cc(c23)C1=O
EC50 [3]: 0.234 µM (active) | EC50 [4]: > 60 µM (not active)

O=c1c(-c2cccc(Cl)c2)nc2cncnc2n1C1CC1
AC50 [6]: 15.8 µM (inconclusive)

Cc1cc(C)n(-c2nc(SCCN(C)C)c3c4c(sc3n2)COC(C)(C)C4)n1
EC50 [3]: 0.836 µM (active) | EC50 [4]: > 30 µM (not active)

CC1CC1c1ccc(/C=C(\C#N)C(=O)Nc2cccc(Cl)c2Cl)o1 (centres undefined)
EC50 [9]: > 53 µM (inactive)

Cn1nc([N+](=O)[O-])nc1Oc1ccccc1C(=O)N1CCOCC1
EC50 [3]: 0.117 µM (active) | EC50 [4]: > 60 µM (not active)

C=CCc1cccc(/C=N/NC(=O)C(C)Nc2cccc(C)c2)c1O (centres undefined)
EC50 [3]: 1.84 µM (active) | EC50 [4]: > 30 µM (not active)

O=[N+]([O-])c1nn(-c2ccc3c(c2)OCCO3)[n+]([O-])c1NC1CCCC1
EC50 [3]: 0.88 µM (active) | EC50 [4]: > 30 µM (not active)
